# How the values were obtained:
# Assay type in all cases: cell-based, human
# [1] = test system: A53T a-syn; test: A53T a-syn immunofluorescence in rat cortical neurons; settings: primary rat cortical neurons
# Text: Pregnant rats (E17) of the Sprague-Dawley strain were purchased from Envigo. Embryos were surgically removed from the mothers and cortices dissected in Hanks Balanced salt solution (Gibco). The meninges were removed, and cells were dissociated using a papain dissociation system (Worthington) before being resuspended in Neurobasal medium A supplemented with antibiotic-antimycotic solution (Gibco), L-glutamine substitute (GlutaMAX™; Gibco) and factor B27 (Gibco). […]
# After fixation, cells were permeabilized with 0.2% Triton-X-100 for 15 min, washed three times with PBS and then incubated with blocking solution (1% BSA, 22.52 mg/mL glycine, 0.1% Tween-20 in PBS or 0.4% saponin, 1% BSA, and 5% goat or donkey serum in PBS) for 1 h. […] Following another three washes with PBS, nuclei were counterstained with DAPI (ThermoFisher) and then coverslips were mounted on slides using Dako fluorescence mounting medium (Agilent) and sealed using clear nail varnish.
# (§1) Confocal images of immunofluorescent staining were acquired with a Zeiss LSM880 confocal microscope equipped with 405, 488, 555, and 639 nm laser lines. All images were taken within the linear range at constant gain and pinhole settings at optimal resolution settings determined by the software. […]
# [2] = test system: LAMP1 in iPSC-derived dopaminergic neurons; test: LAMP1 fluorescence in iPSC-derived dopaminergic neurons; settings: A53T a-syn iPSC-derived dopaminergic neurons
# Method: A53T a-syn iCell Dopa neurons (catalog #R1109) and isogenic control iCell Dopa neurons (catalog #R1088) were purchased from Fujifilm Cellular Dynamics (Madison, WI, USA) and cultured as per the manufacturer’s instructions. Briefly, cells were plated in complete maintenance medium provided by the manufacturer on poly-L-ornithine/laminin coated μ plates (ibidi). Cells recovered from thawing for 24 h and then were transduced with AAV-Scramble1.3-RFP or AAV-PDpep1.3-RFP at MOI of 3000 for 48 h at which time media was completely changed. Cells were fixed using 4% PFA at 7 days post-plating.
# as §1
# (§2) Confocal images of primary cortical neurons, iPSC-derived dopaminergic neurons, and LAMP1 staining within the SN were processed using Imaris software (Oxford instruments). […] Mean pixel intensity per GFP^+ cell (for experiments using GFP-tagged peptides) or RFP^+ cell (for experiments using RFP-tagged peptides) was calculated for a-syn or LAMP1 signal using the software’s surfaces module. […]
# [3] = test system: a-syn oligomers in iPSC-derived dopaminergic neurons; test: a-syn oligomer (Syn-O2) fluorescence in iPSC-derived dopaminergic neurons; settings: A53T a-syn iPSC-derived dopaminergic neurons
# Text: Further, we used an antibody that has a high binding affinity for oligomeric a-syn and recognizes early soluble oligomers and late fibrils of a-syn (Syn-O2)[54]. This antibody detects these a-syn conformations in cerebrospinal fluid[55] and brain tissue[54] from PD patients. Levels of these a-syn conformations were increased in A53T a-syn neurons (Fig. 6G, H). Further, LAMP1 levels were reduced in A53T a-syn neurons (Fig. 6D, F).
# A53T a-syn iCell Dopa neurons (catalog #R1109) and isogenic control iCell Dopa neurons (catalog #R1088) were purchased from Fujifilm Cellular Dynamics (Madison, WI, USA) and cultured as per the manufacturer’s instructions. […]
# as §1, §2
sequence,measurement,setting,value
DEEIERQLKALG [PDpep1.3],Effect on A53T a-syn fluorescence,[1],significant decrease in A53T a-syn fluorescence intensity
same,"Effect on LAMP1 levels, iPSC neurons",[2],LAMP1 levels to those of isogenic controls
same,"Effect on oligomeric a-syn, iPSC neurons",[3],"returned levels of a-syn, including oligomeric a-syn, as well as LAMP1 levels to those of isogenic controls"
